Results reported in PMC10855334, “Molecular and Functional Characterization of Three General Odorant-Binding Protein 2 Genes in Cydia pomonella (Lepidoptera: Tortricidae)” (International Journal of Molecular Sciences, 2024).

Legend:
CpomGOBP2a = CpomGOBP2a (Cydia pomonella, UniProt J7G4I1); assay: Fluorescence competitive binding assay (1-NPN probe), recombinant CpomGOBP2a; conditions: for Ki: 2.0 µM protein and 2.0 µM 1-NPN, 50 mM Tris-HCl pH 7.4, competitor 2-20 µM, read-out: dissolution constants (Ki)
Sequence of CpomGOBP2a (J7G4I1 entry or part of it): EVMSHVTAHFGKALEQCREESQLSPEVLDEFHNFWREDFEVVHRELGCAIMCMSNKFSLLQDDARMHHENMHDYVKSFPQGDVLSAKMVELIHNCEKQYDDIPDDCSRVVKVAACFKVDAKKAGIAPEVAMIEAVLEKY
From the text: (§1) The proteins were recombinantly expressed using an Escherichia coli expression system with an N-His tag. The complete coding regions lacking the signal peptide sequence of CpomGOBP2a, CpomGOBP2b, and CpomGOB2c were subcloned into the NdeI/EcoRI restricted and dephosphorylated pET-28b expression vector. The constructed plasmid was subsequently transformed into E. coli BL21 (DE3) competent cells for further expression. The size and purity of the target proteins were confirmed using sodium dodecyl sulfate-polyacrylamide gel electrophoresis (SDS-PAGE) and Western blot. The proteins were stored at −80 °C for subsequent fluorescence competitive binding experiments.
Fluorescence competitive binding assays were conducted on a Synergy4 (BioTek Instruments, Winooski, VT, USA) microplate reader using the F96 Black ELIAS Plate (Xinyou Biotechnology, Hangzhou, China). Probe 1-NPN and the tested ligands were dissolved in spectrophotometric-grade methanol to generate 1.0 mM stock solutions. The fluorescence probe 1-NPN was excited at 337 nm, and emission spectra were recorded between 390 and 490 nm. Initially, to test the binding constants of 1-NPN to the CpomGOBP2, a 2.0 µM solution of protein in 50 mM Tris-HCl (pH = 7.4) was titrated with 1 mM of 1-NPN to achieve various concentrations. Next, the competitive binding of each odorant (Table 1) was examined using 1-NPN as a fluorescent reporter and the odorant as a competitor. The concentrations of protein and 1-NPN were both 2.0 µM; the odorant was included after the protein and 1-NPN were added into the well of the ELIAS Plate for 2 min. The final concentrations of each competitor were 2, 4, 6, 8, 10, 12, 14, 16, 18, and 20 µM. After 2 min of odorant addition, the fluorescence intensity was measured and documented. The volume of mixed solution in each well was maintained at 250 µL. Each interaction was conducted in triplicate.

CpomGOBP2b = CpomGOBP2b (Cydia pomonella, UniProt J7GAV3); assay: Fluorescence competitive binding assay (1-NPN probe), recombinant CpomGOBP2b; conditions: 2.0 µM protein in 50 mM Tris-HCl pH 7.4 titrated with 1-NPN, read-out: dissociation constant with 1-NPN
Sequence of CpomGOBP2b (J7GAV3 entry or part of it): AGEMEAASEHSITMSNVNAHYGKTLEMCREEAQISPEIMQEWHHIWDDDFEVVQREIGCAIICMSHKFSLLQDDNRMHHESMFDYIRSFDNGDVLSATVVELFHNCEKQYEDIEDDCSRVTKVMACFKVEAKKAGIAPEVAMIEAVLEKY
From the text: as §1
(§2) Fluorescence competitive binding assays were conducted on a Synergy4 (BioTek Instruments, Winooski, VT, USA) microplate reader using the F96 Black ELIAS Plate (Xinyou Biotechnology, Hangzhou, China). Probe 1-NPN and the tested ligands were dissolved in spectrophotometric-grade methanol to generate 1.0 mM stock solutions. The fluorescence probe 1-NPN was excited at 337 nm, and emission spectra were recorded between 390 and 490 nm. Initially, to test the binding constants of 1-NPN to the CpomGOBP2, a 2.0 µM solution of protein in 50 mM Tris-HCl (pH = 7.4) was titrated with 1 mM of 1-NPN to achieve various concentrations. […] After 2 min of odorant addition, the fluorescence intensity was measured and documented. […]

[1] = molecular target: CpomGOBP2c (Cydia pomonella); assay: Fluorescence competitive binding assay (1-NPN probe), recombinant CpomGOBP2c; conditions: 2.0 µM protein in 50 mM Tris-HCl pH 7.4 titrated with 1-NPN, read-out: dissociation constant with 1-NPN
Sequence of CpomGOBP2c (Cydia pomonella) (J7GAV3 entry or part of it): as above
From the text: as §1, §2

Structure (SMILES) | Kd (CpomGOBP2a; 2.0 µM protein in 50 mM Tris-HCl pH 7.4 titrated with 1-NPN, read-out: dissociation constant with 1-NPN) | Kd (CpomGOBP2b) | Kd [1] | Ki (CpomGOBP2a)
c1ccc(Nc2cccc3ccccc23)cc1 [1-NPN] | 12.6 µM | 27.5 µM | 18.9 µM | –
CCCCCCCC(=O)OCCCC [butyl octanoate] | – | – | – | 8.6 µM
C/C=C/C=C/CCCCCCCO [codlemone] | – | – | – | 22.7 µM
CCCCC/C=C\C=C\C(=O)OCC [ethyl (2E,4Z)-deca-2,4-dienoate] | – | – | – | 9.15 µM
CC(=O)CC/C=C(\C)CCC=C(C)C [geranylacetone] | – | – | – | 22.9 µM
